Assay results from patent US20150141383A1, “Darunavir Polymorph and Process for Preparation Thereof” (Cipla Limited, priority 2010, published 2015).

Assay: Hygroscopicity study as per British Pharmacopoeia method
Type: physicochemical
Method: Darunavir Hydrate From C was subjected to hygroscopicity study and the test was performed as per the method given in British Pharmacopoeia.
A weight change of 0.0003 g was observed which correspond to 0.06% weight change. As per the test a sample is of non-hygroscopic nature if the weight change observed is less than 0.2%.

## CC(C)CN(C[C@@H](O)[C@H](Cc1ccccc1)NC(=O)O[C@H]1CO[C@H]2OCC[C@H]21)S(=O)(=O)c1ccc(N)cc1 [darunavir hydrate Form C, (3R,3aS,6aR)-hexahydrofuro[2,3-b]furan-3-yl(1S,2R)-3-[[(4-aminophenyl)sulfonyl](isobutyl)amino]-1-benzyl-2-hydroxypropylcarbamate]
25° C. and 85% RH, 24 hours
  hygroscopic nature (non-hygroscopic if weight change less than 0.2%): non-hygroscopic
57.6456 g exposed at 25° C. and 85% RH for 24 hours
  weight change: 0.0003 g
Exposed at 25° C. and 85% RH for 24 hours
  weight change: 0.06%
